According to patent publication US10881634B2, “Method for treatment or prevention of a disease associated with a decrease in bone mass and method of improving bone architecture and bio mechanical strength of bone” (HUGHES BIOTECHNOLOGY CO., LTD, priority 2017, dated 2021):

Columns and labels:
[1] = Weight changes in ovariectomized rat model; type: in vivo, Wistar rats; settings: ovariectomized rats; for effect on weight gain caused by estrogen deficiency: 12 weeks
Experimental: 12-week-old female Wistar rats were used. All of experimental rats were purchased from BioLASCO Taiwan Co., Ltd. The rats were housed in the Experimental Animal Center of Taipei Medical University. The animal room was maintained under temperature of 21-24° C., relative humidity of 30-70%, and 12 hours of automatic light for alternating dark and bright. During the experimental periods, the animals were given adequate drinking water and fed with standard feed. The feeding and surgery were in accordance with the regulations of the Institutional Animal Care and Use Committee (IACUC) of Taipei Medical University.
(§1) For ovariectomy rats, bilateral ovariectomy surgery was conducted at 12-week-old under anesthesia with Zoletil 50 (Tiletamine 20-40 mg/kg+Zolazepam 5-10 mg/kg) and Rompun, following the FDA Guidelines and Animal Models for Osteoporosis. For sham surgery rats, set as control group, the surgery performed surgical incision without removing the ovaries was also conducted at 12-week-old under anesthesia with Zoletil 50 (Tiletamine 20-40 mg/kg+Zolazepam 5-10 mg/kg) and Rompun. After ovariectomy surgery, 24 rats of ovariectomy group were randomly divided into 4 groups, namely, 6 rats in each group. After 2 weeks of surgery, the rats were oral administered once a day with different samples based on their groups. The rats were weighed once a week as the basis for the dose of administration for 12 weeks and the weight data were recorded. Finally, when sacrificed, the ovarian of the rats were checked to determine whether the ovariectomy surgery was successful or not, wherein the data of failed ovariectomy rat(s) would be eliminated.
(§2) Total 30 rats were grouped into following 5 groups (i.e., “SHAM”, “OVX”, “G7P”, “G7P2X”, “E2”). • a. SHAM group: sham surgery rats, set as control group, fed with sterile water by oral gavage; • b. OVX group: ovariectomized rats, set as negative control, fed with sterile water by oral gavage; • c. G7P group: ovariectomized rats, administered with 5.33 mg/kg B.W. G7P solution once per day by oral gavage, wherein the dosage was equal to 40 mg/day of the amount of soy isoflavones for adult; • d. G7P2X group: ovariectomized rats, administered with 10.66 mg/kg B.W. G7P once per day by oral gavage, wherein the dosage was equal to 80 mg/day of the amount of soy isoflavones for adult; • e. E2 group: ovariectomized rats, set as positive control, administered with 200 μg/kg B.W. […] once per day by tube feeding.

[2] = system: ovariectomized rats; assay: Bone index test (in vivo micro-CT scan of caput femoris); parameters: species or system Wistar rats; settings: for BMD level compared with OVX group: week 12
Experimental: as §1, §2
At week 0, 3, 6, 9 and 12 of the experimental period, in vivo micro-CT scan were conducted on the caput femoris of right leg of the rats by animal CT scanner system Sky Scan 1176 to obtain the 3D tomography image. The obtained 3D tomography images were further analyzed by software so as to obtain bone index data. The data include bone mineral density (BMD) and bone volume-to-total volume ratio (bone volume/total volume, BV/TV, %).

[3] = system: ovariectomized rats; assay: Bone mechanics analysis (three-point bending test of femur); type: in vivo, Wistar rats; settings: week 12
Experimental: as §1, §2
The bio-mechanical strength of femur was measured using bio-mechanical testing instrument (RT1-TST, Royalty Tec.Ins. Ltd) after removing the soft tissue of left leg. First, the length of the femur was measured by the electronic vernier and the mid-position of the femur was set so as to be the scale standard which must be aligned when compressing the vertical physical strength of the femur by the bone stress meter. The femur was kept moist with physiological saline and fixed on a test bench for a three-point bending test. The motor revolution speed of the bone stress meter was set at 0.05 mm/sec. After the femur was compressed to fracture, the parameters of the bone mechanics analysis obtained by the test system were as follows:
a. maximal load: the force converted from the maximum weight of the record, the unit is Newton;
b. maximal energy: the area integratal under the record curve, the unit is mJ;
d. Young's modulus or elastic modulus (E).

[4] = system: ovariectomized rats; assay: Histopathological observation (H&E staining, caput femoris); type: in vivo, Wistar rats
Experimental: as §1
Total 30 rats were grouped into following 5 groups (i.e., “SHAM”, “OVX”, “G7P”, “G7P2X”, “E2”). • a. SHAM group: sham surgery rats, set as control group, fed with sterile water by oral gavage; • b. OVX group: ovariectomized rats, set as negative control, fed with sterile water by oral gavage; • c. […]

[5] = system: ovarietomized rats; settings: 3.2 mg/kg B.W. daily oral supplement, 5 months; cited from earlier work
[6] = estradiol 200 μg/kg B.W. once per day oral (E2 group)
[7] = estradiol 200 μg/kg B.W. once per day by tube feeding (E2 group)
[8] = G7P 5.33 mg/kg B.W. once per day oral (G7P group)
[9] = G7P 10.66 mg/kg B.W. once per day oral (G7P2X group)
[10] = G7P 5.33 mg/kg B.W. once per day oral gavage (G7P group)
[11] = G7P 10.66 mg/kg B.W. once per day oral gavage (G7P2X group)

## C[C@]12CC[C@@H]3c4ccc(O)cc4CC[C@H]3[C@@H]1CC[C@@H]2O [E2, 1743 estradiol, reference compound]
[1]; [6]
  effect on weight gain caused by estrogen deficiency: could reduce the weight gain
[2]; [6]
  BV/TV compared with OVX group: higher than that of the OVX group with statistical significance
  trabecular structure in μCT 3D imaging: a wide but loose trabecular distribution
  BMD level compared with OVX group: significantly higher than that of the OVX group
[3]; [7]
  Max Energy: 76.1 ± 20.3 mJ
  Stiffness: 307.6 ± 55.1 N/mm
  applied load: 176.8 ± 12.1 N

## O=c1c(-c2ccc(O)cc2)coc2cc(OP(=O)(O)O)cc(O)c12 [G7P, genistein 7-O-phophate]
[1]; [8]
  effect on weight gain caused by estrogen deficiency: did not reverse the weight gain
[1]; G7P 5.33 mg/kg B.W. once per day oral (G7P group), week 12 after surgery
  body weight: ~400 g
[1]; [9]
  effect on weight gain caused by estrogen deficiency: did not reverse the weight gain
[4]; [8]
  bone mineral retention and trabecular bone density in H&E slide: good
[4]; [9]
  bone mineral retention and trabecular bone density in H&E slide: good
[2]; [8]
  BV/TV compared with OVX group: higher than that of the OVX group with statistical significance
  trabecular structure in μCT 3D imaging: much integrated than that of the OVX group
  BMD level compared with OVX group: significantly higher than that of the OVX group
[2]; [9]
  BV/TV compared with OVX group: higher than that of the OVX group with statistical significance
  trabecular structure in μCT 3D imaging: much integrated than that of the OVX group
  BMD level compared with OVX group: significantly higher than that of the OVX group
[3]; [10]
  Elastic modulus: 21.8 ± 2.6 MPa
  Max Energy: 74.4 ± 6.8 mJ
  Stiffness: 326.2 ± 43.2 N/mm
  applied load: 186.5 ± 5.9 N
[3]; [11]
  Elastic modulus: 22.8 ± 6.1 MPa
  Max Energy: 82.7 ± 22.8 mJ
  Stiffness: 319.1 ± 6.1 N/mm
  applied load: 197.5 ± 20.6 N

## O=c1c(-c2ccc(O)cc2)coc2cc(O)cc(O)c12 [genistein]
[5]
  effect on bone mass, density or architecture: had no effect on bone mass, density or architecture
